Measurements taken from article PMC10394516, “The pharmacokinetic profile of brensocatib and its effect on pharmacodynamic biomarkers including NE, PR3, and CatG in various rodent species” (Frontiers in Pharmacology, 2023).
Read-outs that look alike come from different tables or passages of the source.

Test: Plasma PK of brensocatib, BID vs QD oral dosing, Wistar rats
Assay type: in vivo
Conditions: both sexes, rat; for half-life: Wistar, po; for AUC(0-t): first 24 h
Protocol: A dose frequency study was performed in male and female mice (C57BL/6 & BALB/c) and in male and female rats (Sprague Dawley & Wistar) investigating twice daily (BID) versus once daily (QD) brensocatib administration.
Briefly, animals were weighed and randomized into different treatment groups. In total, three different dosing levels of brensocatib were tested in each species and strain; each QD dosing level was equivalent to 1.5-times the matching daily BID dose. For BID dosing, the second daily dose was administered 8-h post the morning dose. C57BL/6 mice were dosed either BID or QD for 7 consecutive days at 0/0, 0.5/0.75, 2/3, and 20/30 mg/kg/day (BID/QD). BALB/c mice were dosed for 7 consecutive days at 0/0, 0.2/0.3, 2/3, and 20/30 mg/kg/day (BID/QD). SD rats were dosed for 9 consecutive days at 0/0, 0.2/0.3, 2/3, and 20/30 mg/kg/day (BID/QD). Wistar rats were dosed for 7 consecutive days at 0/0, 0.2/0.3, 2/3, and 20/30 mg/kg/day (BID/QD).
For sparse PK analysis via LC-MS/MS, plasma was collected from animals during the first 24 h of dosing at prescribed timepoints. The timepoints included 1, 3, 8, and 24 h post initial dose for QD groups, and 1, 3, 8, 9, 11, and 24 h post initial dose for BID groups. Note that the 8- and 24-h plasma samples were prior to the afternoon dose for BID groups and prior to the second day dose for all groups, respectively. See section Quantification of Plasma Brensocatib Concentrations for details.
Blood was collected via the tail-vein technique and centrifuged to separate and collect the plasma. The resulting plasma samples were stored at −20°C or lower until LC-MS/MS analysis.
The plasma concentration of brensocatib was quantified by liquid chromatography, tandem mass spectrometry (LC-MS/MS), a Sciex API6500 mass spectrometer (SCIEX, Framingham, MA). Two brensocatib stock solutions were prepared, one for the preparation of the 8-point standard (STD) curve spiking solutions and the other for the preparation of the quantitative control spiking solutions (QCs) at three levels. The STD curve and QCs were prepared by 2% spiking from the spiking solutions into mouse or rat plasma. The samples were extracted using a protein precipitation method, where 10 µL of sample was mixed with 100 µL of internal standard working solution (100 ng/mL ^6C13-brensocatib in methanol), vortexed for 5 s, and centrifuged at 21,130 × g at 4°C for 15 min. The supernatant was mixed with an equal volume of water and 10 μL was injected into a Phenomenex Kinetex Biphenyl column (3.0 mm × 50 mm; 2.6 μm; 65°C; 0.8 mL/min) with an elution gradient consisting of mobile phase A (10 mM ammonium formate) and mobile phase B (methanol) over 2 min from 5% to 95% B. The mass spectrometer was equipped with an atmospheric-pressure chemical ionization source operating in positive mode.
Individual plasma concentrations were plotted and the area under the curve (AUC) was calculated using the trapezoid method. The elimination rate constant (k e ) was calculated as the negative natural log of the plasma concentration over time (Eq. 1) starting at the max concentration (C max) after the most recent dose to the last measurable plasma concentration between doses. The calculated k e was used to define the half-life (t 1/2 ) based on Eq. 2; where 0.693 is the natural log of 2 and assumes a first-order reaction. ke=−ln∆C/∆t (1) t1/2=0.693/ke (2)

In the case of `Cn1c(=O)oc2ccc(-c3ccc(C[C@@H](C#N)NC(=O)[C@@H]4CNCCCO4)cc3)cc21` [brensocatib], the half-life (0.2 mg/kg/day, oral BID, 0.2 mg/kg/day, evening dose, read-out: t1/2, PM dose (converted)) is reported as 6.45 ± 0.55 h, the half-life (0.2 mg/kg/day, oral BID, 0.2 mg/kg/day, morning dose, read-out: t1/2, AM dose (converted)) is reported as 5.48 ± 1.76 h and the half-life (0.3 mg/kg/day, oral QD, 0.3 mg/kg/day, read-out: t1/2, AM dose (converted)) is reported as 34.3 ± 20.3 h. The half-life (2 mg/kg/day, oral BID, 2 mg/kg/day, evening dose, read-out: t1/2, PM dose (converted)) was 4.99 ± 0.33 h, the half-life (2 mg/kg/day, oral BID, 2 mg/kg/day, morning dose, read-out: t1/2, AM dose (converted)) was 10.2 ± 1.47 h and the half-life (3 mg/kg/day, oral QD, 3 mg/kg/day, read-out: t1/2, AM dose (converted)) was 5.14 ± 0.5 h. It also gave a half-life (20 mg/kg/day, oral BID, 20 mg/kg/day, evening dose, read-out: t1/2, PM dose (converted)) of 4.33 ± 0.16 h, a half-life (20 mg/kg/day, oral BID, 20 mg/kg/day, morning dose, read-out: t1/2, AM dose (converted)) of 7.81 ± 1.38 h and a half-life (30 mg/kg/day, oral QD, 30 mg/kg/day, read-out: t1/2, AM dose (converted)) of 4.41 ± 0.18 h. The AUC(0-t) (oral BID, 0.2 mg/kg/day, read-out: AUC0–24h) was 377 ± 78 ng·h/mL, the AUC(0-t) (oral BID, 0.2 mg/kg/day, read-out: AUC(0–24)) was 0.9 ± 0.18 µM·h and the AUC(0-t) (oral BID, 2 mg/kg/day, read-out: AUC0–24h) was 9820 ± 1820 ng·h/mL. It also gave an AUC(0-t) (oral BID, 2 mg/kg/day, read-out: AUC(0–24)) of 23.4 ± 4.32 µM·h, an AUC(0-t) (oral BID, 20 mg/kg/day, read-out: AUC0–24h) of 173000 ng·h/mL and an AUC(0-t) (oral BID, 20 mg/kg/day, read-out: AUC(0–24)) of 412 ± 89.6 µM·h. The AUC(0-t) (oral QD, 0.3 mg/kg/day, read-out: AUC0–24h) was 1040 ± 291 ng·h/mL, the AUC(0-t) (oral QD, 0.3 mg/kg/day, read-out: AUC(0–24)) was 2.46 ± 0.69 µM·h and the AUC(0-t) (oral QD, 3 mg/kg/day, read-out: AUC0–24h) was 11700 ng·h/mL. It also gave an AUC(0-t) (oral QD, 3 mg/kg/day, read-out: AUC(0–24)) of 27.9 ± 5.53 µM·h, an AUC(0-t) (oral QD, 30 mg/kg/day, read-out: AUC0–24h) of 266000 ng·h/mL and an AUC(0-t) (oral QD, 30 mg/kg/day, read-out: AUC(0–24)) of 634 ± 52.4 µM·h.
